Source: PubChem BioAssay AID248 (DTP/NCI, 2004)
“And” between values parts separate entries of the source, which are not always exact repeats. Identical values can stand only once. Toxic doses and inconclusive results are not listed. Rule as the data show it: active = T/C of 150% or more; inactive = T/C below 125%.

Tested on: L1210 leukemia ip in BDF1 mice, survival T/C
Assay: NCI In Vivo Anticancer Drug Screen. Data for tumor model L1210 Leukemia (intraperitoneal) in B6D2F1 (BDF1) mice
Details: endpoint: mean survival time, higher = longer survival
Procedure, shortened: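 Antitumor effect is assessed in tumor-bearing animals. Survival in the compound arm is compared with a vehicle-dosed control arm and expressed as their quotient.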

[1] = dose: 100.0 mg/kg/injection, schedule: Q01DX001 (ip), vehicle: Klucel (hydroxypropylcellulose) (HPC)
[2] = dose: 200.0 mg/kg/injection, schedule: Q01DX001 (ip), vehicle: Klucel (hydroxypropylcellulose) (HPC)
[3] = dose: 300.0 mg/kg/injection, schedule: Q01DX009 (ip), vehicle: Klucel (hydroxypropylcellulose) (HPC)
[4] = dose: 400.0 mg/kg/injection, schedule: Q01DX001 (ip), vehicle: Klucel (hydroxypropylcellulose) (HPC)
[5] = dose: 100.0 mg/kg/injection, schedule: Q04DX003 (ip), vehicle: Klucel (hydroxypropylcellulose) (HPC)
[6] = dose: 200.0 mg/kg/injection, schedule: Q04DX003 (ip), vehicle: Klucel (hydroxypropylcellulose) (HPC)
[7] = dose: 400.0 mg/kg/injection, schedule: Q04DX003 (ip), vehicle: Klucel (hydroxypropylcellulose) (HPC)
[8] = dose: 100.0 mg/kg/injection, schedule: Q01DX001 (ip), vehicle: saline
[9] = dose: 200.0 mg/kg/injection, schedule: Q01DX001 (ip), vehicle: saline
[10] = dose: 400.0 mg/kg/injection, schedule: Q01DX001 (ip), vehicle: saline
[11] = dose: 75.0 mg/kg/injection, schedule: Q01DX001 (ip), vehicle: saline
[12] = dose: 150.0 mg/kg/injection, schedule: Q01DX001 (ip), vehicle: saline
[13] = dose: 100.0 mg/kg/injection, schedule: Q01DX009 (ip), vehicle: Klucel (hydroxypropylcellulose) (HPC)
[14] = dose: 100.0 mg/kg/injection, schedule: Q04DX002 (ip), vehicle: Klucel (hydroxypropylcellulose) (HPC)
[15] = dose: 200.0 mg/kg/injection, schedule: Q01DX009 (ip), vehicle: Klucel (hydroxypropylcellulose) (HPC)
[16] = dose: 200.0 mg/kg/injection, schedule: Q04DX002 (ip), vehicle: Klucel (hydroxypropylcellulose) (HPC)
[17] = dose: 400.0 mg/kg/injection, schedule: Q01DX009 (ip), vehicle: Klucel (hydroxypropylcellulose) (HPC)
[18] = dose: 400.0 mg/kg/injection, schedule: Q04DX002 (ip), vehicle: Klucel (hydroxypropylcellulose) (HPC)
[19] = dose: 100.0 mg/kg/injection, schedule: Q04DX003 (ip), vehicle: saline with Tween-80

Measured: T/C

CCOC1(OCC)CC2(Cl)C(Cl)=C(Cl)C(Cl)(C3C1CC3(OCC)OCC)C2(OC)OC (centres undefined)
inactive: dose: 75.0 mg/kg/injection, schedule: Q01DX009 (ip), vehicle: Klucel (hydroxypropylcellulose) (HPC) 103 % of control | [1] 95 % of control | dose: 150.0 mg/kg/injection, schedule: Q01DX009 (ip), vehicle: Klucel (hydroxypropylcellulose) (HPC) 107 % of control | [2] 103 % of control | [3] 100 % of control | [4] 97 % of control

Cc1cc([N+](=O)[O-])c(C)cc1Cl
inactive: dose: 100.0 mg/kg/injection, schedule: Q01DX009 (ip), vehicle: saline sonified 98 % of control | [5] 98 % of control | dose: 200.0 mg/kg/injection, schedule: Q01DX009 (ip), vehicle: saline sonified 100 % of control | [6] 98 % of control | dose: 400.0 mg/kg/injection, schedule: Q01DX009 (ip), vehicle: saline sonified 100 % of control | [7] 98 % of control

CCN(C(C)=O)c1ccc([N+](=O)[O-])cc1
inactive: [8] 105 % of control | [9] 96 % of control | [10] 105 % of control

O=C(O)c1cc(N=Nc2ccc(S(=O)(=O)Nc3nccs3)cc2)ccc1O
inactive: dose: 100.0 mg/kg/injection, schedule: Q01DX001 (ip), vehicle: carboxymethylcellulose (CMC) 95 % of control | dose: 200.0 mg/kg/injection, schedule: Q01DX001 (ip), vehicle: carboxymethylcellulose (CMC) 95 % of control | dose: 400.0 mg/kg/injection, schedule: Q01DX001 (ip), vehicle: carboxymethylcellulose (CMC) 101 % of control

CC(=O)N1CCCC2CCc3c([nH]c4ccccc34)C21 (centres undefined)
inactive: dose: 75.0 mg/kg/injection, schedule: Q01DX001 (ip), vehicle: other 110 % of control | dose: 150.0 mg/kg/injection, schedule: Q01DX001 (ip), vehicle: other 119 % of control | dose: 300.0 mg/kg/injection, schedule: Q01DX001 (ip), vehicle: other 110 % of control

CCOC(=O)C(=N\Nc1cc(C)ccc1C)/C(C)=N\NC(N)=S
inactive: [11] 87 % of control | [12] 97 % of control | dose: 300.0 mg/kg/injection, schedule: Q01DX001 (ip), vehicle: saline 97 % of control

IC1CCC2OC1CCC2I (centres undefined)
inactive: dose: 100.0 mg/kg/injection, schedule: Q04DX002 (ip), vehicle: saline with Tween-80 94 % of control | dose: 200.0 mg/kg/injection, schedule: Q04DX002 (ip), vehicle: saline with Tween-80 94 % of control | dose: 400.0 mg/kg/injection, schedule: Q04DX002 (ip), vehicle: saline with Tween-80 109 % of control

COc1cc(C=O)cc(OC)c1OC
inactive: [5] 93 % of control | [6] 93 % of control | [7] 87 % of control

Cc1c2cnccc2c(C)c2c1[nH]c1ccccc12
inactive: dose: 25.0 mg/kg/injection, schedule: Q01DX Z (ip), vehicle: saline 104 % of control | dose: 50.0 mg/kg/injection, schedule: Q01DX Z (ip), vehicle: saline 102 % of control | dose: 75.0 mg/kg/injection, schedule: Q01DX Z (ip), vehicle: saline 100 % of control | [8] 97 % of control | dose: 100.0 mg/kg/injection, schedule: Q01DX Z (ip), vehicle: saline 102 % of control and 92 % of control | dose: 150.0 mg/kg/injection, schedule: Q01DX Z (ip), vehicle: saline 90 % of control | [9] 100 % of control | dose: 225.0 mg/kg/injection, schedule: Q01DX Z (ip), vehicle: saline 93 % of control | dose: 335.0 mg/kg/injection, schedule: Q01DX Z (ip), vehicle: saline 97 % of control and 98 % of control | [10] 100 % of control | dose: 500.0 mg/kg/injection, schedule: Q01DX Z (ip), vehicle: saline 113 % of control

NC(=O)C1CCN(C(=O)Nc2cc(C(F)(F)F)ccc2Cl)CC1
inactive: [1] 93 % of control | [13] 98 % of control and 102 % of control | [14] 103 % of control and 107 % of control | [5] 111 % of control | [2] 86 % of control | [15] 93 % of control and 98 % of control | [16] 100 % of control and 105 % of control | [6] 103 % of control | [4] 91 % of control | [17] 95 % of control | [18] 100 % of control | [7] 107 % of control

CCCCCCC#CC(=O)O
inactive: dose: 100.0 mg/kg/injection, schedule: Q01DX009 (sc), vehicle: olive oil, sesame oil, peanut oil 103 % of control | dose: 100.0 mg/kg/injection, schedule: Q04DX003 (sc), vehicle: olive oil, sesame oil, peanut oil 97 % of control | dose: 200.0 mg/kg/injection, schedule: Q01DX009 (sc), vehicle: olive oil, sesame oil, peanut oil 108 % of control | dose: 200.0 mg/kg/injection, schedule: Q04DX003 (sc), vehicle: olive oil, sesame oil, peanut oil 106 % of control | dose: 400.0 mg/kg/injection, schedule: Q01DX009 (sc), vehicle: olive oil, sesame oil, peanut oil 95 % of control | dose: 400.0 mg/kg/injection, schedule: Q04DX003 (sc), vehicle: olive oil, sesame oil, peanut oil 108 % of control

CC(CSc1ccccc1)NCCO (centres undefined)
inactive: [19] 97 % of control

C=CCSc1cccc(Cl)c1
inactive: [8] 101 % of control | [9] 96 % of control

O=C(CCCCCl)Nc1cccc2c1C(=O)c1c(c(O)c3ccccc3c1O)C2=O
inactive: [19] 98 % of control | dose: 200.0 mg/kg/injection, schedule: Q04DX003 (ip), vehicle: saline with Tween-80 90 % of control | dose: 400.0 mg/kg/injection, schedule: Q04DX003 (ip), vehicle: saline with Tween-80 90 % of control

O=C1CSCc2ccccc21
inactive: [14] 103 % of control | [16] 95 % of control | [18] 95 % of control

NS(=O)(=O)c1cc(Br)c2c(c1)S(=O)(=O)NCN2
inactive: dose: 65.0 mg/kg/injection, schedule: Q01DX009 (ip), vehicle: Klucel (hydroxypropylcellulose) (HPC) 102 % of control | [11] 106 % of control | dose: 135.0 mg/kg/injection, schedule: Q01DX009 (ip), vehicle: Klucel (hydroxypropylcellulose) (HPC) 88 % of control | [12] 96 % of control | [15] 100 % of control | [3] 97 % of control | dose: 600.0 mg/kg/injection, schedule: Q01DX009 (ip), vehicle: Klucel (hydroxypropylcellulose) (HPC) 88 % of control

O=C(Cl)c1c(Cl)c(Cl)c(C(=O)Cl)c(Cl)c1Cl
inactive: dose: 25.0 mg/kg/injection, schedule: Q01DX009 (ip), vehicle: saline 90 % of control | dose: 50.0 mg/kg/injection, schedule: Q01DX009 (ip), vehicle: saline 97 % of control | [8] 98 % of control | dose: 100.0 mg/kg/injection, schedule: Q04DX003 (ip), vehicle: saline 100 % of control | [9] 98 % of control | [10] 104 % of control

O=C(CBr)c1cccnc1
inactive: dose: 6.25 mg/kg/injection, schedule: Q01DX009 (ip), vehicle: saline 98 % of control | dose: 12.5 mg/kg/injection, schedule: Q01DX009 (ip), vehicle: saline 98 % of control

Cn1ncc2c1C1(C)CCC2C1(C)C (centres undefined)
inactive: dose: 50.0 mg/kg/injection, schedule: Q01DX009 (ip), vehicle: Klucel (hydroxypropylcellulose) (HPC) 89 % of control | [5] 102 % of control | [15] 92 % of control | [6] 107 % of control

CC/C(=N\N=C(N)N)c1ccc(NC(=S)Nc2ccccc2)cc1
inactive: dose: 20.0 mg/kg/injection, schedule: Q01DX009 (ip), vehicle: saline 101 % of control | dose: 40.0 mg/kg/injection, schedule: Q01DX009 (ip), vehicle: saline 101 % of control | dose: 80.0 mg/kg/injection, schedule: Q01DX009 (ip), vehicle: saline 107 % of control

Cc1cc(=O)n2c(n1)Nc1ccccc1C2
inactive: [8] 87 % of control | [9] 93 % of control | [10] 87 % of control

O=C(Nc1ccc(NC(=O)c2ccccc2)c2c1C(=O)c1ccccc1C2=O)c1ccccc1
inactive: [13] 96 % of control | [14] 100 % of control | [15] 96 % of control | [16] 93 % of control | [17] 107 % of control | [18] 103 % of control
